{"source": "ChEMBL document CHEMBL1201862", "about": "“PubChem BioAssay data set” (2004)", "test_in_all_cases": "growth of human tumour cells (NCI), 48 h", "key": {"786-0": {"test_system": "786-0"}, "A498": {"test_system": "A498"}, "A549": {"test_system": "A549"}, "ACHN": {"test_system": "ACHN"}, "BT-549": {"test_system": "BT-549"}, "CAKI-1": {"test_system": "CAKI-1"}, "CCRF-CEM": {"test_system": "CCRF-CEM"}, "COLO 205": {"test_system": "COLO 205"}, "DU-145": {"test_system": "DU-145"}, "EKVX": {"test_system": "EKVX"}, "HCC 2998": {"test_system": "HCC 2998"}, "HCT-116": {"test_system": "HCT-116"}, "HCT-15": {"test_system": "HCT-15"}, "HOP-62": {"test_system": "HOP-62"}, "HT-29": {"test_system": "HT-29"}, "Hs-578T": {"test_system": "Hs-578T"}, "IGROV-1": {"test_system": "IGROV-1"}, "K562": {"test_system": "K562"}, "KM12": {"test_system": "KM12"}, "LOX IMVI": {"test_system": "LOX IMVI"}, "M14": {"test_system": "M14"}, "MCF7": {"test_system": "MCF7"}, "MDA-MB-231": {"test_system": "MDA-MB-231"}, "MDA-MB-435": {"test_system": "MDA-MB-435"}, "MDA-N": {"test_system": "MDA-N"}, "MOLT-4": {"test_system": "MOLT-4"}, "Malme-3M": {"test_system": "Malme-3M"}, "NCI-H226": {"test_system": "NCI-H226"}, "NCI-H460": {"test_system": "NCI-H460"}, "NCI-H522": {"test_system": "NCI-H522"}, "NCI/ADR-RES": {"test_system": "NCI/ADR-RES"}, "OVCAR-3": {"test_system": "OVCAR-3"}, "OVCAR-4": {"test_system": "OVCAR-4"}, "OVCAR-5": {"test_system": "OVCAR-5"}, "OVCAR-8": {"test_system": "OVCAR-8"}, "PC-3": {"test_system": "PC-3"}, "RPMI-8226": {"test_system": "RPMI-8226"}, "RXF 393": {"test_system": "RXF 393"}, "SF-268": {"test_system": "SF-268"}, "SF-295": {"test_system": "SF-295"}, "SK-MEL-28": {"test_system": "SK-MEL-28"}, "SK-MEL-2": {"test_system": "SK-MEL-2"}, "SK-MEL-5": {"test_system": "SK-MEL-5"}, "SK-OV-3": {"test_system": "SK-OV-3"}, "SN12C": {"test_system": "SN12C"}, "SNB-19": {"test_system": "SNB-19"}, "SNB-75": {"test_system": "SNB-75"}, "SR": {"test_system": "SR"}, "SW-620": {"test_system": "SW-620"}, "T47D": {"test_system": "T47D"}, "TK-10": {"test_system": "TK-10"}, "U-251": {"test_system": "U-251"}, "UACC-257": {"test_system": "UACC-257"}, "UACC-62": {"test_system": "UACC-62"}, "UO-31": {"test_system": "UO-31"}}, "note": "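1) Cells in 96-well plates. 2) Compound, 48 h, 5 concentrations. 3) Linear interpolation between surrounding doses. 4) Unreached endpoint = highest concentration. GI50 marks 50% less growth.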 Active and inactive are the calls of the source. Cut-off read from the data, not from the text of the source: active = GI50 up to about 1.1 µM and inactive = higher.", "data": [{"smiles": "O=c1onc2n1-c1cc(Cl)ccc1C(=S)N1CSCC21", "note": "(stereo not given)", "values": [{"measurement": "GI50", "setting": "786-0", "result": "> 100 µM (inactive)"}, {"measurement": "GI50", "setting": "A498", "result": "> 100 µM (inactive)"}, {"measurement": "GI50", "setting": "A549", "result": "> 100 µM (inactive)"}, {"measurement": "GI50", "setting": "ACHN", "result": "> 100 µM (inactive)"}, {"measurement": "GI50", "setting": "BT-549", "result": "> 100 µM (inactive)"}, {"measurement": "GI50", "setting": "CAKI-1", "result": "> 100 µM (inactive)"}, {"measurement": "GI50", "setting": "CCRF-CEM", "result": "55.8 µM (inactive)"}, {"measurement": "GI50", "setting": "COLO 205", "result": "> 100 µM (inactive)"}, {"measurement": "GI50", "setting": "DU-145", "result": "> 100 µM (inactive)"}, {"measurement": "GI50", "setting": "EKVX", "result": "> 100 µM (inactive)"}, {"measurement": "GI50", "setting": "HCC 2998", "result": "> 100 µM (inactive)"}, {"measurement": "GI50", "setting": "HCT-116", "result": "> 100 µM (inactive)"}, {"measurement": "GI50", "setting": "HCT-15", "result": "> 100", "unit": "µM"}, {"measurement": "GI50", "setting": "HOP-62", "result": "> 100 µM (inactive)"}, {"measurement": "GI50", "setting": "HT-29", "result": "> 100 µM (inactive)"}, {"measurement": "GI50", "setting": "Hs-578T", "result": "> 100 µM (inactive)"}, {"measurement": "GI50", "setting": "IGROV-1", "result": "> 100 µM (inactive)"}, {"measurement": "GI50", "setting": "K562", "result": "26.7 µM (inactive)"}, {"measurement": "GI50", "setting": "KM12", "result": "89.7 µM (inactive)"}, {"measurement": "GI50", "setting": "LOX IMVI", "result": "> 100 µM (inactive)"}, {"measurement": "GI50", "setting": "M14", "result": "> 100 µM (inactive)"}, {"measurement": "GI50", "setting": "MCF7", "result": "> 100 µM (inactive)"}, {"measurement": "GI50", "setting": "MDA-MB-231", "result": "> 100 µM (inactive)"}, {"measurement": "GI50", "setting": "MDA-MB-435", "result": "> 100 µM (inactive)"}, {"measurement": "GI50", "setting": "MDA-N", "result": "> 100 µM (inactive)"}, {"measurement": "GI50", "setting": "MOLT-4", "result": "> 100 µM (inactive)"}, {"measurement": "GI50", "setting": "Malme-3M", "result": "> 100 µM (inactive)"}, {"measurement": "GI50", "setting": "NCI-H226", "result": "> 100 µM (inactive)"}, {"measurement": "GI50", "setting": "NCI-H460", "result": "> 100 µM (inactive)"}, {"measurement": "GI50", "setting": "NCI-H522", "result": "> 100 µM (inactive)"}, {"measurement": "GI50", "setting": "NCI/ADR-RES", "result": "> 100 µM (inactive)"}, {"measurement": "GI50", "setting": "OVCAR-3", "result": "> 100 µM (inactive)"}, {"measurement": "GI50", "setting": "OVCAR-4", "result": "> 100 µM (inactive)"}, {"measurement": "GI50", "setting": "OVCAR-5", "result": "> 100 µM (inactive)"}, {"measurement": "GI50", "setting": "OVCAR-8", "result": "> 100 µM (inactive)"}, {"measurement": "GI50", "setting": "PC-3", "result": "> 100 µM (inactive)"}, {"measurement": "GI50", "setting": "RPMI-8226", "result": "> 100 µM (inactive)"}, {"measurement": "GI50", "setting": "RXF 393", "result": "> 100 µM (inactive)"}, {"measurement": "GI50", "setting": "SF-268", "result": "> 100 µM (inactive)"}, {"measurement": "GI50", "setting": "SF-295", "result": "> 100 µM (inactive)"}, {"measurement": "GI50", "setting": "SK-MEL-28", "result": "> 100 µM (inactive)"}, {"measurement": "GI50", "setting": "SK-MEL-2", "result": "> 100 µM (inactive)"}, {"measurement": "GI50", "setting": "SK-MEL-5", "result": "> 100 µM (inactive)"}, {"measurement": "GI50", "setting": "SK-OV-3", "result": "> 100 µM (inactive)"}, {"measurement": "GI50", "setting": "SN12C", "result": "> 100 µM (inactive)"}, {"measurement": "GI50", "setting": "SNB-19", "result": "> 100 µM (inactive)"}, {"measurement": "GI50", "setting": "SNB-75", "result": "31.3 µM (inactive)"}, {"measurement": "GI50", "setting": "SR", "result": "34.6 µM (inactive)"}, {"measurement": "GI50", "setting": "SW-620", "result": "> 100 µM (inactive)"}, {"measurement": "GI50", "setting": "T47D", "result": "> 100 µM (inactive)"}, {"measurement": "GI50", "setting": "TK-10", "result": "> 100 µM (inactive)"}, {"measurement": "GI50", "setting": "U-251", "result": "> 100 µM (inactive)"}, {"measurement": "GI50", "setting": "UACC-257", "result": "> 100 µM (inactive)"}, {"measurement": "GI50", "setting": "UACC-62", "result": "> 100 µM (inactive)"}, {"measurement": "GI50", "setting": "UO-31", "result": "> 100 µM (inactive)"}]}]}
